In US11905230B2, “Phenoxyacetic acid derivatives, preparation method thereof and use thereof as medicament” (CHINA PHARMACEUTICAL UNIVERSITY, priority 2017, dated 2024):

Assays:
[1] = biological target: hGPR40 receptor (Homo sapiens (Human), UniProt O14842); assay: agonistic activity on hGPR40-CHO stably transfected cells (Fluo-4 / FLIPR); assay type: cell-based; details: for activation at 0.1 µM: 100 nM, relative to linoleic acid well; for EC50: mean ± SD of three determinations
Description: Experimental example 1 The agonistic activity of the compounds of the present invention on hGPR40-CHO stably transfected cells
The present invention used the following method to determine the GPR40 agonistic activity of the compounds of the invention:
hGPR40-CHO stably transfected cells were seeded into a 96-well plate at a density of 3×10^4/well, and incubated overnight in a 37° C., 5% CO2 cell incubator; the medium was discarded, 100 μl of HBSS was added to each well, and 100 μl of Fluo-4 dye solution containing Probenecid was added and incubated at 37° C. for 90 min. After the incubation, the Fluo-4 dye solution was sucked out, 100 μl of HBSS buffer was added, and the dye was washed away; 100 μl of HBSS containing Probenecid was added to each well, and incubated at 37° C. for 10 min; different concentrations of drugs were added to each well of the 96-well plate and FLIPR (Molecular Devices) was used for readings according to the parameter setting table. The experimental results were analyzed.

[2] = biological target: PPARγ (Homo sapiens (Human), UniProt P37231); assay: selective experiment of PPARγ agonism; assay type: cell-based; details: selectivity experiment; read-out: EC K (EC50) of PPARγ agonism
[3] = Evaluation of hepatotoxicity: serum ALT, AST and TBIL after 4 weeks of dosing; assay type: in vivo; details: for ALT (IU/L) / AST (IU/L) / TBIL (IU/L): serum, once a day for consecutive 4 weeks, x ± SD, n = 6
Description: Experimental example 3 Evaluation of hepatotoxicity of the compounds of the present invention:
The test compounds were administered once a day for consecutive 4 weeks, blood was taken, and the contents of alanine aminotransferase (ALT), aspartate aminotransferase (AST), and total bilirubin (TBIL) were measured.

[4] = biological target: GPR120 (Homo sapiens (Human), UniProt Q5NUL3); assay: selective experiment of GPR120 agonism; assay type: cell-based; details: selectivity experiment; read-out: EC K (EC50) of GPR120 agonism
[5] = system: normal mice; assay: Oral glucose tolerance test (OGTT) in normal mice; assay type: in vivo, Kunming mice; details: for effect on oral glucose tolerance in mice (in words): OGTT in normal mice, 20 mg/kg; for blood glucose level at 15 min / blood glucose level at 0 min / blood glucose level at 30 min / blood glucose level at 60 min / blood glucose level at 120 min: OGTT, 20 mg/kg by gavage, n = 8, in mmol/L (unit assumed); for blood glucose level at 15 min: 15 min after glucose load; for blood glucose level at 0 min: 30 min after dosing, before glucose load; for blood glucose level at 30 min: 30 min after glucose load; for blood glucose level at 60 min: 60 min after glucose load; for blood glucose level at 120 min: 120 min after glucose load
Description: Experimental example 2 In vivo hypoglycemic activity of the compounds of the present invention can be determined by using an assay system as described below:
The mice were fasted for 12 hours before experiment and water was taken freely, each group was administrated by gavage, blood was taken from the tail, and the blood glucose level was measured (recorded as −30 min).

Sequence of hGPR40 receptor (O14842 whole entry): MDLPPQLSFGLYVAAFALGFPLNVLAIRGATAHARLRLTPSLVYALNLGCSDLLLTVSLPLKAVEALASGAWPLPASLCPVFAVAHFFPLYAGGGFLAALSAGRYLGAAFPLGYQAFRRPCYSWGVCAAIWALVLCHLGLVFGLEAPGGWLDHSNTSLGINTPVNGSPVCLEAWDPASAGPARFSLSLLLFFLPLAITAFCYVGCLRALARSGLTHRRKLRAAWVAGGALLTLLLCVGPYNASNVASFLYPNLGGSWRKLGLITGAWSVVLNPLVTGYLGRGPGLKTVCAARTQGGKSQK
Sequence of GPR120 (Q5NUL3 whole entry, species assumed): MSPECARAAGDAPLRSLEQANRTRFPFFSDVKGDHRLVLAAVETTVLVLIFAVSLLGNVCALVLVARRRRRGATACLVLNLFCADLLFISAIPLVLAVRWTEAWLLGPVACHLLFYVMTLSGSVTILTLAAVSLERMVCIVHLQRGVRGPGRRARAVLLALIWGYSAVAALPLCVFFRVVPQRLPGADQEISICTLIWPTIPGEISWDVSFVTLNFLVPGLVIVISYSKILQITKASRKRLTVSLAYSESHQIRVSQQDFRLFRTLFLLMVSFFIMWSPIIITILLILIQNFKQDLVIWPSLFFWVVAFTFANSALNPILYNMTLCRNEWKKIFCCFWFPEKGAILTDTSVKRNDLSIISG
Sequence of PPARγ (P37231 whole entry, species assumed): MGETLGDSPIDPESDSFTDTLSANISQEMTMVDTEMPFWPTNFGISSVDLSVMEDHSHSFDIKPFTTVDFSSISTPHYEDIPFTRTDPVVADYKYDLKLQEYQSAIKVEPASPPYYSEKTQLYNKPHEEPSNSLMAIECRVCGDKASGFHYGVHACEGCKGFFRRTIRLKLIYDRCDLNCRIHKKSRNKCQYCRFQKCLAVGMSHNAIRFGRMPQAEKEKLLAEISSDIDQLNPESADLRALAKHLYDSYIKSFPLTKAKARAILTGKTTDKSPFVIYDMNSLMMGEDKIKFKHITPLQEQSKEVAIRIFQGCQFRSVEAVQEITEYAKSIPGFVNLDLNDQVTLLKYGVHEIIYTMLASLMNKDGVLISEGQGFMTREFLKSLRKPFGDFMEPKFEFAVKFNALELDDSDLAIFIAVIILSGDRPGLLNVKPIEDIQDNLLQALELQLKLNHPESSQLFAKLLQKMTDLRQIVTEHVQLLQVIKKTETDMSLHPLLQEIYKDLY

Structure (SMILES) | melting point [°C] | activation at 0.1 µM [1] [%] | other results
O=C(O)COc1ccc(NCc2cccc(-c3ccccc3F)c2)cc1 [Compound I-26, 2-(4-((2′-fluoro-[1,1′-biphenyl]-3-methylene)amino)phenoxy)acetic acid] | 111 to 112 | 61 | 
Cc1ccccc1-c1cccc(CNc2ccc(OCC(=O)O)c(F)c2)c1 [Compound I-3, 2-(4-((2′-methyl-[1,1′-biphenyl]-3-methylene)amino)-2-fluorophenoxy)acetic acid] |  | 87 | EC50 [2]: 83000 nM; EC50 [1]: 4.8 ± 3.5 nM; AST, ALT and TBIL compared with STZ (blank) group (in words) ([3]; 4 weeks of dosing): equivalent to the blank group; ALT (IU/L) [3]: 51.23 ± 5.6 IU/L; AST (IU/L) [3]: 103.27 ± 9.98 IU/L; TBIL (IU/L) [3]: 2.55 ± 0.4 IU/L; EC50 [4]: 54000 nM; effect on oral glucose tolerance in mice (in words) [5]: significantly improve oral glucose tolerance; blood glucose level at 15 min [5]: 7.13 ± 0.29; blood glucose level at 0 min [5]: 4.61 ± 0.63; blood glucose level at 30 min [5]: 6.94 ± 0.38; blood glucose level at 60 min [5]: 5.06 ± 0.23; blood glucose level at 120 min [5]: 4.38 ± 0.29
Cc1cc(OC(C)C)ccc1-c1cccc(CNc2ccc(OCC(=O)O)cc2)c1 [Compound I-23] | 132 to 135 | 62 | 
CCOCCOc1cc(C)c(-c2cccc(CNc3ccc(OCC(=O)O)cc3)c2)c(C)c1 [Compound I-37, 2-(4-((4′-(2-ethoxyethoxy)-2′,6′-dimethyl-[1,1′-biphenyl]-3-methylene)amino)phenoxy)acetic acid] | 133 to 136 | 50 | 
Cc1ccc(-c2cccc(CNc3ccc(OCC(=O)O)cc3)c2)c(Cl)c1 [Compound I-27, 2-(4-((2′-chloro-4′-methyl-[1,1′-biphenyl]-3-methylene)amino)phenoxy)acetic acid] | 111 to 114 | 69 | 
O=C(O)COc1ccc(NCc2cccc(-c3ccccc3Cl)c2)cc1 [Compound I-24, 2-(4-((2′-chloro-[1,1′-biphenyl]-3-methylene)amino)phenoxy)acetic acid] | 124 to 126 | 80 | EC50 [1]: 18.6 ± 2.7 nM; ALT (IU/L) [3]: 52.68 ± 5.7 IU/L; AST (IU/L) [3]: 116.78 ± 12.4 IU/L; TBIL (IU/L) [3]: 2.56 ± 0.2 IU/L; effect on oral glucose tolerance in mice (in words) [5]: significantly improve oral glucose tolerance; blood glucose level at 15 min [5]: 9.22 ± 0.57; blood glucose level at 0 min [5]: 4.39 ± 0.34; blood glucose level at 30 min [5]: 8.04 ± 0.49; blood glucose level at 60 min [5]: 5.29 ± 0.34; blood glucose level at 120 min [5]: 4.33 ± 0.33
CCOCOc1cc(C)c(-c2cccc(CNc3ccc(OCC(=O)O)c(F)c3)c2)c(C)c1 [Compound I-40, 2-(2-fluoro-4-((4′-(2-ethoxymethoxy)-2′,6′-dimethyl-[1,1′-biphenyl]-3-methylene)amino)phenoxy)acetic acid] | 136 to 139 | 63 | 
CCOCCOc1cc(C)c(-c2cccc(CNc3ccc(OCC(=O)O)c(F)c3)c2)c(C)c1 [Compound I-36, 2-(2-fluoro-4-((4′-(2-ethoxyethoxy)-2′,6′-dimethyl-[1,1′-biphenyl]-3-methylene)amino)phenoxy)acetic acid] | 137 to 139 | 56 | 
Cc1cc(OC(C)C)ccc1-c1cccc(CNc2ccc(OCC(=O)O)c(F)c2)c1 [Compound I-22] | 134 to 137 | 65 | 
COc1cc(C)c(-c2cccc(CNc3ccc(OCC(=O)O)cc3)c2)c(C)c1 [Compound I-18, 2-(4-((4′-methoxy-2′,6′-dimethyl-[1,1′-biphenyl]-3-methylene)amino)phenoxy)acetic acid] | 131 to 134 | 65 | 
O=C(O)COc1ccc(NCc2cccc(-c3ccccc3OC(F)(F)F)c2)cc1F [Compound I-33] | 111 to 113 | 50 | 
O=C(O)COc1ccc(NCc2cccc(-c3ccccc3OC(F)(F)F)c2)cc1 [Compound I-32, 2-(4-((2′-trifluoromethoxy-[1,1′-biphenyl]-3-methylene)amino)phenoxy)acetic acid] | 107 to 110 | 46 | 
Cc1noc(C)c1-c1cccc(CNc2ccc(OCC(=O)O)c(F)c2)c1 [Compound I-14, 2-(4-((3-(3,5-dimethylisoxazol-4-yl)benzyl)amino)-2-fluorophenoxy)acetic acid] | 72 to 73 | 54 | 
COCOc1cc(C)c(-c2cccc(CNc3ccc(OCC(=O)O)cc3)c2)c(C)c1 [Compound I-39, 2-(4-((4′-(2-methoxymethoxy)-2′,6′-dimethyl-[1,1′-biphenyl]-3-methylene)amino)phenoxy)acetic acid] | 132 to 134 | 60 | 
Cc1cc(OC(F)(F)F)cc(C)c1-c1cccc(CNc2ccc(OCC(=O)O)c(F)c2)c1 [Compound I-34, 2-(4-((4′-trifluoromethoxy-2′,6′-dimethyl-[1,1′-biphenyl]-3-methylene)amino)-2-fluorophenoxy)acetic acid] | 127 to 130 | 64 | 
N#Cc1ccccc1-c1cccc(CNc2ccc(OCC(=O)O)c(F)c2)c1 [Compound I-7, 2-(4-((2′-Nitrile-[1,1′-biphenyl]-3-methylene)amino)-2-fluorophenoxy)acetic acid] | 137 to 140 | 45 | 
COc1ccccc1-c1cccc(CNc2ccc(OCC(=O)O)c(F)c2)c1 [Compound I-6, 2-(4-((2′-methoxy-[1,1′-biphenyl]-3-methylene)amino)-2-fluorophenoxy)acetic acid] | 95 to 96 | 53 | 
COc1ccc(-c2cccc(CNc3ccc(OCC(=O)O)cc3)c2)c(C)c1 [Compound I-21] | 121 to 124 | 75 | 
Cc1ccccc1-c1cccc(CNc2ccc(OCC(=O)O)cc2)c1 [Compound I-25, 2-(4-((2′-methyl-[1,1′-biphenyl]-3-methylene)amino)phenoxy)acetic acid] | 101 to 104 | 82 | EC50 [1]: 17.3 ± 3.3 nM; ALT (IU/L) [3]: 51.78 ± 4.5 IU/L; AST (IU/L) [3]: 116.54 ± 8.9 IU/L; TBIL (IU/L) [3]: 2.69 ± 0.4 IU/L; effect on oral glucose tolerance in mice (in words) [5]: significantly improve oral glucose tolerance; blood glucose level at 15 min [5]: 8.47 ± 0.45; blood glucose level at 0 min [5]: 4.48 ± 0.39; blood glucose level at 30 min [5]: 7.23 ± 0.39; blood glucose level at 60 min [5]: 5.11 ± 0.29; blood glucose level at 120 min [5]: 4.29 ± 0.39
Cc1cc(OC(F)(F)F)ccc1-c1cccc(CNc2ccc(OCC(=O)O)c(F)c2)c1 [Compound I-35, 2-(4-((4′-trifluoromethoxy-2′-methyl-[1,1′-biphenyl]-3-methylene)amino)2-fluorophenoxy)acetic acid] | 123 to 125 | 78 | 
COCOc1cc(C)c(-c2cccc(CNc3ccc(OCC(=O)O)c(F)c3)c2)c(C)c1 [Compound I-38, 2-(2-fluoro-4-((4′-(2-methoxymethoxy)-2′,6′-dimethyl-[1,1′-biphenyl]-3-methylene)amino)phenoxy)acetic acid] | 136 to 138 | 64 | 
